Marks after values point to notes of the source that are not given here.
Tests used:
[1] = log P by HPLC on reversed-phase columns (EEC directive 79/831 Annex V.A8); format: physicochemical; settings: for logP: pH 2.7
Description: The log P values were measured according to EEC directive 79/831 Annex V.A8 by HPLC (High Performance Liquid Chromatography) on reversed-phase columns, using the methods below: […] Calibration was carried out using unbranched alkan-2-ones (having from 3 to 16 carbon atoms) with known log P values (the log P values were determined by the retention times using linear interpolation between two successive alkanones). The lambda maX values were determined in the maxima of the chromatographic signals using the UV spectra from 200 nm to 400 nm.

Venturia inaequalis = assay: Example D: Venturia test (apple)/protective; format: in vivo; settings: protective, 100 ppm, evaluation 10 days after inoculation
Description: (§1) Solvent: 24.5 parts by weight of acetone • 24.5 parts by weight of dimethylacetamide Emulsifier: 1 part by weight of alkylaryl polyglycol ether To produce a suitable preparation of active compound, 1 part by weight of active compound is mixed with the stated amounts of solvent and emulsifier, and the concentrate is diluted with water to the desired concentration. To test for protective activity, young plants are sprayed with the preparation of active compound at the stated application rate. […] The plants are then placed in a greenhouse at about 21° C. and a relative atmospheric humidity of about 90%.

Phakopsora pachyrhizi = assay: Example F: Phakopsora test (soya beans)/protective; format: in vivo; settings: protective, 100 ppm, evaluation 7 days after inoculation
Description: (§2) Solvents: 24.5 parts by weight of acetone • 24.5 parts by weight of dimethylacetamide Emulsifier: 1 part by weight of alkylaryl polyglycol ether To produce a suitable preparation of active compound, 1 part by weight of active compound is mixed with the stated amounts of solvent and emulsifier, and the concentrate is diluted with water to the desired concentration. To test for protective activity, young plants are sprayed with the preparation of active compound at the stated application rate.

[2] = test system: Blumeria graminis f.sp. hordei; assay: Example G: Blumeria graminis test (barley)/protective; format: in vivo; settings: protective, 500 ppm, evaluation 7 days after inoculation
Description: as §2, with “Solvent: 49” for “Solvents: 24.5”, “N,N-dimethylacetamide” for “acetone • 24.5 parts by weight of dimethylacetamide”, “rate. After the spray coating has dried on, the plants are dusted with spores of Blumeria graminis f.sp. hordei.” for “rate.”

Septoria tritici [3] = assay: Example I: Septoria tritici test (wheat)/protective; format: in vivo; settings: protective, 500 ppm, evaluation 21 days after inoculation
Description: as §2, with “Solvent: 49” for “Solvents: 24.5”, “N,N-dimethylacetamide” for “acetone • 24.5 parts by weight of dimethylacetamide”, “rate. After the spray coating has dried on, the plants are sprayed with a spore suspension of Septoria tritici.” for “rate.”

Puccinia triticina = assay: Example L: Puccinia triticina test (wheat)/protective; format: in vivo; settings: protective, 500 ppm, evaluation 8 days after inoculation
Description: as §2, with “Solvent: 49” for “Solvents: 24.5”, “N,N-dimethylacetamide” for “acetone • 24.5 parts by weight of dimethylacetamide”, “rate. After the spray coating has dried on, the plants are sprayed with spores with a spore suspension of Puccinia triticina.” for “rate.”

Botrytis cinerea = assay: Example P: preventative in vivo test with Botrytis cinerea (grey mould); settings: cucumber, 500 ppm, evaluation 4-5 days after inoculation
Description: The active compounds tested are prepared by homogenization in a mixture of acetone/Tween/DMSO and then diluted with water to the desired active compound concentration. Cucumber plants (cultivar “Vert petit de Paris”), sown in a 50/50 peat/pozzolana soil substrate and cultivated at 24° C., are treated at the Z11 cotyledon stage by spraying with the active compound, prepared as above. As a control, plants are treated with the mixture of acetone/Tween/DMSO/water without the active compound. After 24 hours, the plants are inoculated by spraying the cotyledons with an aqueous suspension of cryogenically preserved Botrytis cinerea spores.

Puccinia recondita [4] = assay: Example T: preventative in vivo test with Puccinia recondita (brown rust on wheat); settings: 500 ppm, evaluation 10 days after inoculation
Description: The active compounds tested are prepared by homogenization in a mixture of acetone/Tween/DMSO and then diluted with water to the desired active compound concentration. Wheat plants (cultivar “Scipion”), sown in a 50/50 peat/pozzolana soil substrate and cultivated at 22° C. (12 h)/20° C. (12 h), are treated at the 1-leaf stage (height 10 cm) by spraying with the active compound, prepared as above. As a control, plants are treated with the mixture of acetone/Tween/DMSO/water without the active compound. After 24 hours, the plants are inoculated by spraying the leaves with an aqueous suspension of Puccinia recondita spores.

Septoria tritici [5] = assay: Example U: preventative in vivo test with Septoria tritici (leaf blotch disease on wheat); settings: 500 ppm, evaluation 21 to 28 days after inoculation
Description: The active compounds tested are prepared by homogenization in a mixture of acetone/Tween/DMSO and then diluted with water to the desired active compound concentration. Wheat plants (cultivar “Scipion”), sown in a 50/50 peat/pozzolana soil substrate and cultivated at 22° C. (12 h)/20° C. (12 h), are treated at the 1-leaf stage (height 10 cm) by spraying with the active compound, prepared as above. As a control, plants are treated with the mixture of acetone/Tween/DMSO/water without the active compound. After 24 hours, the plants are inoculated by spraying the leaves with an aqueous suspension of cryogenically preserved Septoria tritici spores.

Sphaerotheca fuliginea = assay: Example V: preventative in vivo test with Sphaerotheca fuliginea (powdery mildew on cucumber); settings: 500 ppm, evaluation 12 days after inoculation
Description: The active compounds tested are prepared by homogenization in a mixture of acetone/Tween/DMSO and then diluted with water to the desired active compound concentration. Cucumber plants (cultivar “Vert petit de Paris”), sown in a 50/50 peat/pozzolana soil substrate and cultivated at 24° C., are treated at the Z11 cotyledon stage by spraying with the active compound, prepared as above. As a control, plants are treated with the mixture of acetone/Tween/DMSO/water without the active compound. After 24 hours, the plants are inoculated by spraying the leaves with an aqueous suspension of Sphaerotheca fuliginea spores. The inoculated cucumber plants are incubated at about 20° C./25° C. and a relative atmospheric humidity of 60/70%.

Uromyces appendiculatus [6] = assay: Example W: preventative in vivo test with Uromyces appendiculatus (bean rust); settings: 500 ppm, evaluation 10 days after inoculation
Description: The active compounds tested are prepared by homogenization in a mixture of acetone/Tween/DMSO and then diluted with water to the desired active compound concentration. Bean plants (cultivar “Saxa”), sown in a 50/50 peat/pozzolana soil substrate and cultivated at 24° C., are treated at the 2-leaf stage (height 9 cm) by spraying with the active compound, prepared as above. As a control, plants are treated with the mixture of acetone/Tween/DMSO/water without the active compound. After 24 hours, the plants are inoculated by spraying the leaves with an aqueous suspension of Uromyces appendiculatus spores.

Pyricularia oryzae [7] = format: in vivo; settings: rice, protective, 500 ppm, evaluation 7 days after inoculation
Puccinia recondita [8] = assay: Example X: Puccinia test (wheat)/protective, comparison; format: in vivo; settings: protective, application rate 500 ppm, evaluation 7-9 days after inoculation
Description: as §2, with “Solvent: 49” for “Solvents: 24.5”, “N,N-dimethylformamide” for “acetone • 24.5 parts by weight of dimethylacetamide”, “rate. One day after this treatment, the plants are inoculated with an aqueous spore suspension of Puccinia recondita.” for “rate.”

Uromyces appendiculatus [9] = assay: Example E: Uromyces test (bean)/protective; format: in vivo; settings: protective, 10 ppm, evaluation 10 days after inoculation
Description: as §1, with “Solvents:” for “Solvent:”

Alternaria brassicae = assay: Example O: preventative in vivo test with Alternaria brassicae (leaf spot on radish); settings: 500 ppm, evaluation 5 days after inoculation
Description: The active compounds tested are prepared by homogenization in a mixture of acetone/Tween/DMSO and then diluted with water to the desired active compound concentration. Radish plants (cultivar “Pernod Clair”), sown in a 50/50 peat/pozzolana soil substrate and cultivated at 17° C., are treated at the 2-leaf stage by spraying with the active compound, prepared as above. As a control, plants are treated with the mixture of acetone/Tween/DMSO/water without the active compound. After 24 hours, the plants are inoculated by spraying the leaves with an aqueous suspension of Alternaria brassicae spores.

Pyrenophora teres = assay: Example R: preventative in vivo test with Pyrenophora teres (net blotch on barley); settings: 500 ppm, evaluation 12 days after inoculation
Description: The active compounds tested are prepared by homogenization in a mixture of acetone/Tween/DMSO and then diluted with water to the desired active compound concentration. Barley plants (cultivar “Plaisant”), sown in a 50/50 peat/pozzolana soil substrate and cultivated at 22° C. (12 h)/20° C. (12 h), are treated at the 1-leaf stage (height 10 cm) by spraying with the active compound, prepared as above. As a control, plants are treated with the mixture of acetone/Tween/DMSO/water without the active compound. After 24 hours, the plants are inoculated by spraying the leaves with an aqueous suspension of Pyrenophora teres spores.

Pyricularia oryzae [10] = format: in vivo; settings: rice, preventative, 500 ppm, evaluation 6 days after inoculation
Uromyces appendiculatus [11] = assay: Example Y: Uromyces test (beans)/protective, comparison; format: in vivo; settings: protective, application rate 10 ppm, evaluation 10 days after inoculation
Description: as §1, with “Solvents:” for “Solvent:”

Septoria tritici [12] = assay: Example Z: Septoria tritici test (wheat)/protective, comparison; format: in vivo; settings: protective, application rate 250 ppm, evaluation 21 days after inoculation
Description: Solvent: 49 parts by weight of N,N-dimethylacetamide Emulsifier: 1 part by weight of alkylaryl polyglycol ether To produce a suitable preparation of active compound, 1 part by weight of active compound or active compound combination is mixed with the stated amounts of solvent and emulsifier, and the concentrate is diluted with water to the desired concentration. To test for protective activity, young plants are sprayed with the preparation of active compound or active compound combination at the stated application rate. After the spray coating has dried on, the plants are sprayed with a spore suspension of Septoria tritici.

`Fc1ccc([C@]2(Cn3ccnc3I)O[C@H]2c2ccccc2Cl)c(F)c1` (relative stereo) [Example 14, rel-1-{[(2R,3S)-3-(2-chlorophenyl)-2-(2,4-difluorophenyl)oxiran-2-yl]methyl}-2-iodo-1H-imidazole] showed a chromatographic logP ([1]; pH 2.7, log P(HCOOH)) of 3.23, a chromatographic logP ([1]; pH 2.7, logP) of 3.23 and an Eff. % (Venturia inaequalis) of 100%. It also gave an Eff. % (Phakopsora pachyrhizi) of 100%, an Eff. % [2] of 90% and an Eff. % (Septoria tritici [3]) of 100%. The Eff. % (Puccinia triticina) was 100%, the Efficacy % (Botrytis cinerea) was 97% and the Efficacy % (Puccinia recondita [4]) was 93%. For the same compound, the Efficacy % (Septoria tritici [5]) was 100%, the Efficacy % (Sphaerotheca fuliginea) was 100% and the Efficacy % (Uromyces appendiculatus [6]) was 100%.

Work on `CC(C)(C)C(O)(CCc1ccc(Cl)cc1)Cn1ccnc1I` (stereo not shown) [Example 4] yielded an Eff. % (Pyricularia oryzae [7]) of 80% and an Efficacy in % (Puccinia recondita [8]) of 95%.

With `Fc1ccc(C2(Cn3ccnc3I)OC2c2ccccc2Cl)cc1` (stereo not shown) [Example 8] the logP [1] was 3.09^[a], the Eff. % (Venturia inaequalis) was 100% and the Eff. % (Uromyces appendiculatus [9]) was 100%. The Eff. % (Phakopsora pachyrhizi) was 99%, the Efficacy % (Alternaria brassicae) was 88% and the Efficacy % (Pyrenophora teres) was 79%. It also gave an Efficacy % (Pyricularia oryzae [10]) of 75%, an Efficacy % (Puccinia recondita [4]) of 97% and an Efficacy % (Septoria tritici [5]) of 100%. For the same compound, the Efficacy % (Sphaerotheca fuliginea) was 100% and the Efficacy % (Uromyces appendiculatus [6]) was 100%.

With `Fc1cc(Cl)ccc1C1(Cn2ccnc2I)OC1c1ccccc1Cl` (stereo not shown) [Example 11] the logP [1] was 3.7^[a], the Efficacy % (Botrytis cinerea) was 92% and the Efficacy % (Puccinia recondita [4]) was 93%. For the same compound, the Efficacy % (Septoria tritici [5]) was 100%, the Efficacy % (Sphaerotheca fuliginea) was 100% and the Efficacy % (Uromyces appendiculatus [6]) was 97%.

In the case of `OC(Cc1ccc(F)cc1)(Cn1ccnc1)C1(Cl)CC1` (stereo not shown) [drawing 19, reference compound], the Efficacy in % (Uromyces appendiculatus [11]) is reported as 65%.

For `OC(Cc1ccc(F)cc1)(Cn1ccnc1)C1(Cl)CC1` (stereo not shown) [drawing 21, reference compound], the Efficacy in % (Septoria tritici [12]) was 43%.

`CC(C)(C)C(O)(CCc1ccc(Cl)cc1)Cn1ccnc1` (stereo not shown) [reference compound] showed an Efficacy in % (Puccinia recondita [8]) of 70%.
